Measured values published in PubChem BioAssay AID256 (DTP/NCI, 2004).
Values joined by “and” are separate entries in the source; they are usually repeats but may differ in a detail not shown here. Identical values can stand only once. Inconclusive results and toxic doses are left out. Rule for the calls: active = survival T/C of 150% or more; inactive = T/C below 125% in these data.

Tested on: CD2F1 mice, L1210 leukemia ip, survival T/C
Assay: NCI In Vivo Anticancer Drug Screen. Data for tumor model L1210 Leukemia (intraperitoneal) in CD2F1 (CDF1) mice
Conditions: higher = longer survival
Summary of the method: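 Mice carrying a transplanted tumor received test compound or vehicle alone. The value is the measurement in the treated group divided by that in the vehicle-treated control group.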

[1] = endpoint: mean survival time, dose: 25.0 mg/kg/injection, schedule: Q01DX009 (ip), vehicle: saline with Tween-80
[2] = endpoint: mean survival time, dose: 100.0 mg/kg/injection, schedule: Q01DX009 (ip), vehicle: saline with Tween-80
[3] = endpoint: mean survival time, dose: 100.0 mg/kg/injection, schedule: Q04DX003 (ip), vehicle: saline with Tween-80
[4] = endpoint: mean survival time, dose: 200.0 mg/kg/injection, schedule: Q01DX009 (ip), vehicle: saline with Tween-80
[5] = endpoint: mean survival time, dose: 200.0 mg/kg/injection, schedule: Q04DX003 (ip), vehicle: saline with Tween-80
[6] = endpoint: mean survival time, dose: 400.0 mg/kg/injection, schedule: Q01DX009 (ip), vehicle: saline with Tween-80
[7] = endpoint: mean survival time, dose: 400.0 mg/kg/injection, schedule: Q04DX003 (ip), vehicle: saline with Tween-80
[8] = endpoint: mean survival time, dose: 6.25 mg/kg/injection, schedule: Q01DX009 (ip), vehicle: Klucel (hydroxypropylcellulose) (HPC)
[9] = endpoint: mean survival time, dose: 12.5 mg/kg/injection, schedule: Q01DX009 (ip), vehicle: Klucel (hydroxypropylcellulose) (HPC)
[10] = endpoint: mean survival time, dose: 50.0 mg/kg/injection, schedule: Q04DX003 (ip), vehicle: saline with Tween-80
[11] = endpoint: mean survival time, dose: 50.0 mg/kg/injection, schedule: Q01DX009 (ip), vehicle: Klucel (hydroxypropylcellulose) (HPC)
[12] = endpoint: mean survival time, dose: 100.0 mg/kg/injection, schedule: Q01DX009 (ip), vehicle: Klucel (hydroxypropylcellulose) (HPC)
[13] = endpoint: mean survival time, dose: 100.0 mg/kg/injection, schedule: Q01DX001 (ip), vehicle: saline
[14] = endpoint: mean survival time, dose: 200.0 mg/kg/injection, schedule: Q01DX001 (ip), vehicle: saline
[15] = endpoint: mean survival time, dose: 400.0 mg/kg/injection, schedule: Q01DX001 (ip), vehicle: saline
[16] = endpoint: mean survival time, dose: 100.0 mg/kg/injection, schedule: Q01DX001 (ip), vehicle: saline with Tween-80
[17] = endpoint: mean survival time, dose: 200.0 mg/kg/injection, schedule: Q01DX001 (ip), vehicle: saline with Tween-80
[18] = endpoint: mean survival time, dose: 400.0 mg/kg/injection, schedule: Q01DX001 (ip), vehicle: saline with Tween-80
[19] = endpoint: mean survival time, dose: 25.0 mg/kg/injection, schedule: Q04DX002 (ip), vehicle: saline with Tween-80
[20] = endpoint: mean survival time, dose: 50.0 mg/kg/injection, schedule: Q04DX002 (ip), vehicle: saline with Tween-80
[21] = endpoint: mean survival time, dose: 100.0 mg/kg/injection, schedule: Q04DX002 (ip), vehicle: saline with Tween-80

Measured: T/C

CC(O)C1OC(n2cnc3c(=O)[nH]cnc32)C(O)C1O (stereo unspecified)
inactive: endpoint: mean survival time, dose: 12.5 mg/kg/injection, schedule: Q01DX005 (ip), vehicle: distilled water + Tween-80 114 % of control | endpoint: mean survival time, dose: 25.0 mg/kg/injection, schedule: Q01DX005 (ip), vehicle: distilled water + Tween-80 112 % of control | endpoint: mean survival time, dose: 50.0 mg/kg/injection, schedule: Q01DX005 (ip), vehicle: distilled water + Tween-80 104 % of control | endpoint: mean survival time, dose: 100.0 mg/kg/injection, schedule: Q01DX005 (ip), vehicle: distilled water + Tween-80 102 % of control | endpoint: mean survival time, dose: 200.0 mg/kg/injection, schedule: Q01DX005 (ip), vehicle: distilled water + Tween-80 100 % of control | endpoint: median survival time, dose: 8.75 mg/kg/injection, schedule: Q01DX005 (ip), vehicle: distilled water + Tween-80 108 % of control | endpoint: median survival time, dose: 12.5 mg/kg/injection, schedule: Q01DX005 (ip), vehicle: water 97 % of control | endpoint: median survival time, dose: 17.5 mg/kg/injection, schedule: Q01DX005 (ip), vehicle: distilled water + Tween-80 108 % of control | endpoint: median survival time, dose: 25.0 mg/kg/injection, schedule: Q01DX005 (ip), vehicle: saline with Tween-80 98 % of control | endpoint: median survival time, dose: 25.0 mg/kg/injection, schedule: Q01DX005 (ip), vehicle: water 97 % of control | endpoint: median survival time, dose: 35.0 mg/kg/injection, schedule: Q01DX005 (ip), vehicle: distilled water + Tween-80 102 % of control | endpoint: median survival time, dose: 50.0 mg/kg/injection, schedule: Q01DX005 (ip), vehicle: saline with Tween-80 107 % of control | endpoint: median survival time, dose: 50.0 mg/kg/injection, schedule: Q01DX005 (ip), vehicle: water 109 % of control | endpoint: median survival time, dose: 70.0 mg/kg/injection, schedule: Q01DX005 (ip), vehicle: distilled water + Tween-80 97 % of control | endpoint: median survival time, dose: 100.0 mg/kg/injection, schedule: Q01DX005 (ip), vehicle: saline with Tween-80 98 % of control | endpoint: median survival time, dose: 100.0 mg/kg/injection, schedule: Q01DX005 (ip), vehicle: water 98 % of control | endpoint: median survival time, dose: 140.0 mg/kg/injection, schedule: Q01DX005 (ip), vehicle: distilled water + Tween-80 97 % of control | endpoint: median survival time, dose: 200.0 mg/kg/injection, schedule: Q01DX005 (ip), vehicle: saline with Tween-80 109 % of control | endpoint: median survival time, dose: 200.0 mg/kg/injection, schedule: Q01DX005 (ip), vehicle: water 102 % of control | endpoint: median survival time, dose: 400.0 mg/kg/injection, schedule: Q01DX005 (ip), vehicle: saline with Tween-80 101 % of control

CCCCCCCCCCCCCCCCC(C(=O)O)C(O)(CC(=O)O)C(=O)O (stereo unspecified)
inactive: [1] 90 % of control | endpoint: mean survival time, dose: 50.0 mg/kg/injection, schedule: Q01DX009 (ip), vehicle: saline with Tween-80 88 % of control

CCC1(O)C(=O)OCc2c1cc1n(c2=O)Cc2cc3ccc(CN)cc3nc2-1 (stereo unspecified)
inactive: endpoint: median survival time, dose: 10.0 mg/kg/injection, schedule: Q04DX002 (ip), vehicle: saline with Tween-80 109 % of control | endpoint: median survival time, dose: 10.0 mg/kg/injection, schedule: Q04DX002 (ip), vehicle: water 102 % of control | endpoint: median survival time, dose: 20.0 mg/kg/injection, schedule: Q04DX002 (ip), vehicle: saline with Tween-80 109 % of control | endpoint: median survival time, dose: 20.0 mg/kg/injection, schedule: Q04DX002 (ip), vehicle: water 102 % of control | endpoint: median survival time, dose: 40.0 mg/kg/injection, schedule: Q04DX002 (ip), vehicle: saline with Tween-80 106 % of control | endpoint: median survival time, dose: 40.0 mg/kg/injection, schedule: Q04DX002 (ip), vehicle: water 107 % of control | endpoint: median survival time, dose: 80.0 mg/kg/injection, schedule: Q04DX002 (ip), vehicle: saline with Tween-80 113 % of control | endpoint: median survival time, dose: 80.0 mg/kg/injection, schedule: Q04DX002 (ip), vehicle: water 108 % of control

CCCCNC(=S)S
inactive: [2] 100 % of control | [3] 100 % of control | [4] 102 % of control | [5] 92 % of control | [6] 100 % of control | [7] 94 % of control

NC(=O)C1C=CN(Cc2ccccc2)C=C1
inactive: endpoint: median survival time, dose: 30.0 mg/kg/injection, schedule: Q01DX005 (ip), vehicle: saline with Tween-80 100 % of control | endpoint: median survival time, dose: 60.0 mg/kg/injection, schedule: Q01DX005 (ip), vehicle: saline with Tween-80 107 % of control | endpoint: median survival time, dose: 120.0 mg/kg/injection, schedule: Q01DX005 (ip), vehicle: saline with Tween-80 111 % of control

CNC(=O)OCc1c(COC(=O)NC)c(-c2ccc(F)cc2)n2c1CCC2
inactive: endpoint: mean survival time, dose: 3.13 mg/kg/injection, schedule: Q01DX009 (ip), vehicle: Klucel (hydroxypropylcellulose) (HPC) 115 % of control | [8] 107 % of control | [9] 118 % of control

O=C1C=C(N2CCOCC2)C(=O)c2nccnc21
inactive: endpoint: mean survival time, dose: 25.0 mg/kg/injection, schedule: Q04DX003 (ip), vehicle: saline with Tween-80 95 % of control | [10] 95 % of control

COC(=O)c1c(C(=O)OC)c(-c2ccc(Cl)c(Cl)c2)n2c1CCC2
inactive: [11] 91 % of control | [12] 88 % of control | endpoint: mean survival time, dose: 200.0 mg/kg/injection, schedule: Q01DX009 (ip), vehicle: Klucel (hydroxypropylcellulose) (HPC) 98 % of control

O=C(NCCc1ccccc1)c1ccccc1
inactive: [2] 101 % of control | [4] 107 % of control | [6] 97 % of control

CC(C)C(C)c1ccccc1 (stereo unspecified)
inactive: [13] 100 % of control | [14] 100 % of control | [15] 98 % of control

C=CC1(C)C(C)=C(C)C(C)=C1C
inactive: endpoint: mean survival time, dose: 100.0 mg/kg/injection, schedule: Q01DX001 (ip), vehicle: saline sonified 100 % of control | endpoint: mean survival time, dose: 200.0 mg/kg/injection, schedule: Q01DX001 (ip), vehicle: saline sonified 94 % of control | endpoint: mean survival time, dose: 400.0 mg/kg/injection, schedule: Q01DX001 (ip), vehicle: saline sonified 89 % of control

CC1C=CC(C(=O)Nc2ccc(Cl)c(Cl)c2)N1C (stereo unspecified)
inactive: [5] 92 % of control

Cc1ccc(S(=O)(=O)OC(c2ccc(C(OS(=O)(=O)c3ccc(C)cc3)(C(F)(F)F)C(F)(F)F)cc2)(C(F)(F)F)C(F)(F)F)cc1
inactive: [16] 96 % of control | [17] 95 % of control | [18] 90 % of control

CCCCC(NCCNC(CCCC)C(=O)O)C(=O)O (stereo unspecified)
inactive: [3] 102 % of control | [5] 91 % of control | [7] 107 % of control

CCCCCCCCCCCC[N+]1([O-])CCOCC1
inactive: [19] 101 % of control | [20] 97 % of control | [21] 108 % of control

Cc1ccc([N+](=O)[O-])cc1C#N
inactive: [3] 105 % of control | [5] 105 % of control | [7] 113 % of control

O=C(O)C[N-]c1ccccc1.O=C(O)C[N-]c1ccccc1.[Ni+2]
inactive: [1] 95 % of control | [10] 107 % of control | [3] 106 % of control

CCOC(=O)/C=C/c1ccc2c(c1)OCO2
inactive: [3] 97 % of control | [5] 94 % of control | [7] 103 % of control

C1CCC2OCCOCCOC3CCCCC3OCCOCCOC2C1 (stereo unspecified)
inactive: endpoint: mean survival time, dose: 3.12 mg/kg/injection, schedule: Q01DX009 (ip), vehicle: Klucel (hydroxypropylcellulose) (HPC) 108 % of control | [8] 98 % of control and 103 % of control | [9] 87 % of control and 100 % of control | endpoint: mean survival time, dose: 25.0 mg/kg/injection, schedule: Q01DX009 (ip), vehicle: Klucel (hydroxypropylcellulose) (HPC) 102 % of control and 103 % of control | [11] 100 % of control and 104 % of control | [12] 91 % of control

CCCCNc1cc(=O)[nH]c(=O)[nH]1
inactive: endpoint: mean survival time, dose: 50.0 mg/kg/injection, schedule: Q01DX001 (ip), vehicle: saline with Tween-80 104 % of control | [16] 98 % of control | [17] 102 % of control

O=C1OCC2(C(=O)O)C(=O)OCC12 (stereo unspecified)
inactive: endpoint: mean survival time, dose: 50.0 mg/kg/injection, schedule: Q01DX001 (ip), vehicle: saline 97 % of control | [13] 106 % of control | [14] 106 % of control | [15] 101 % of control

CCCCSCCN
inactive: [19] 94 % of control | [20] 94 % of control | [21] 102 % of control

CCOc1ccc(N=Cc2ccccc2O)cc1
inactive: [16] 94 % of control | [17] 94 % of control | [18] 87 % of control

COc1ccc2c(c1O)CNCC2c1ccc(O)cc1O (stereo unspecified)
inactive: endpoint: mean survival time, dose: 75.0 mg/kg/injection, schedule: Q01DX001 (ip), vehicle: saline 100 % of control | endpoint: mean survival time, dose: 150.0 mg/kg/injection, schedule: Q01DX001 (ip), vehicle: saline 98 % of control
